According to BindingDB's records for doi:10.1111/cbdd.12095 (Universite Lille-Nord de France, 2013):

Molecular target: Cannabinoid receptor 2 (Homo sapiens, UniProt P34972)
Assay: Competition Binding Assay
Text: Competitive binding assay using cannabinoid receptors.

Cannabinoid receptor 2, sequence (P34972 whole entry): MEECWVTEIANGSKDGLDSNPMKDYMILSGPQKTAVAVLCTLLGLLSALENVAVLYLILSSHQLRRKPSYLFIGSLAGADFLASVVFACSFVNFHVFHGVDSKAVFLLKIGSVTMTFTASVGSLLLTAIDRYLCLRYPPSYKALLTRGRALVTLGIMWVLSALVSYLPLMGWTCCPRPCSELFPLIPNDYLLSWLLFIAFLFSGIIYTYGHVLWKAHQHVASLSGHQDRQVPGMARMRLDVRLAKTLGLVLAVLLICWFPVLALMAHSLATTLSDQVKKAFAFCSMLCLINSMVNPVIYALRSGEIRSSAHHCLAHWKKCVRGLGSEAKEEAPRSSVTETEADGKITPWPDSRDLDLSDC

Structure (SMILES) | Ki
C#CN1CCC2=C(C1)c1c(O)cc(C(C)C(C)CCCCC)cc1OC2(C)C (stereo not drawn) [CB2 Inhibitor, 1] | 0.0023 µM
Cc1cc(C)c(CNC(=O)c2cc3c(C)nn(Cc4ccc(F)cc4)c3s2)c(=O)[nH]1 [CB2 Inhibitor, 2] | 0.143 µM
CC1N(C)c2ccc(P(=O)(c3ccccc3)c3ccccc3)cc2C1(C)C (stereo not drawn) [CB2 Inhibitor, 3] | 0.54 µM
Cc1cc(C(=O)COc2ccccc2C(N)=O)c(C)n1CCC1=CCCCC1 [CB2 Inhibitor, 4] | 0.96 µM
COc1ccc(CN2CCCn3c4c(c5cc(C)ccc53)CCCC42)cc1O (stereo not drawn) [CB2 Inhibitor, 5] | 2.36 µM
CC1CCCN(Cc2cc(-c3ccc4c(c3)OCO4)ccc2OCC(=O)NCc2ccccc2F)C1 (stereo not drawn) [CB2 Inhibitor, 6] | 4.44 µM
c1ccc2c(c1)CCCC2Nc1nc(CN2CCCCC2)nc2sc3c(c12)CCCC3 (stereo not drawn) [CB2 Inhibitor, 7] | 4.78 µM
O=C(CCC(=O)N1CCC(n2c(=O)[nH]c3ccccc32)CC1)c1ccc2c(c1)CCCC2 [CB2 Inhibitor, 8] | 8.83 µM
CCC(CC)S(=O)(=O)c1cccc(-c2nnc(SCCN(C)C)n2C2CCCCCC2)c1 [CB2 Inhibitor, 9] | 9.27 µM
CCCC(=NNC(=O)C1CC1(c1cccc(C)c1)c1cccc(C)c1)c1ccc(OC)cc1 (stereo not drawn) [CB2 Inhibitor, 10] | 14.7 µM
CC1=CC(C(=O)CN2C(=O)NC(C)(c3ccc(F)cc3)C2=O)=C(C)C1CCc1cccs1 (stereo not drawn) [CB2 Inhibitor, 11] | 36.9 µM
CCCn1c(SCC(=O)NCC2COc3ccccc3O2)nc2sc3c(c2c1=O)CCC3 (stereo not drawn) [CB2 Inhibitor, 12] | 60.9 µM
CN(C)C(CNC(=O)C1(Cc2ccccc2)CCCCC1)c1cccs1 (stereo not drawn) [CB2 Inhibitor, 13] | 71.4 µM
